Reference: article PMC7113773 (Antiviral Research, 2014)
Structures can show the parent of a compound that is named as a salt. Where two headings read alike, the source gives them in different places.

Key:
[1] = test system: A/Puerto Rico/8/34 (H1N1; PR8); experiment: organism not typed; assay type: cell-based, influenza A virus; conditions: for EC50: read-out: EC50 for influenza virus A/Puerto Rico/8/34
in vitro = conditions: dog
A/Hong Kong/8/68 (H3N2) = experiment: organism not typed; assay type: cell-based, influenza A virus; conditions: for EC50: read-out: EC50 for influenza virus A/Hong Kong/8/68
[2] = test system: pore-forming glycoprotein perforin; conditions: previous study, ref Lena et al., 2008; cited from earlier work
[3] = test system: PR8 virus NP and HA protein; assay type: cell-based, influenza A virus; conditions: 11, 33 and 100 μM, 24 h at 35 °C
MDCK cells = conditions: for CC50: read-out: CC50 for MDCK cells, mock-infected MDCK cells, day 3, MTT
B/Lee/40 = assay type: cell-based, influenza B virus; conditions: for EC50: read-out: EC50 for influenza virus B/Lee/40
[4] = test system: influenza A/H1N1, A/H3N2 and B viruses; experiment: CPE reduction assay / screen, stated for the three influenza viruses together; assay type: cell-based; conditions: even at 100 μM

SMILES | EC50 ([1]; MDCK, 72 h) | CC50 (in vitro) | EC50 (A/Hong Kong/8/68 (H3N2); MDCK, 72 h) | further results
NC12CC3CC(CC(C3)C1)C2 [Amantadine hydrochloride, reference compound] | > 100 µM | > 100 µM | 2.8 ± 1.7 µM | 
Cc1cc2c(c(=O)[nH]1)C(=O)O/C2=C\c1c[nH]c2ccc(F)cc12 [Compound 15b, (Z)-1-((5-Fluoro-1H-indol-3-yl)methylene)-6-methylfuro[3,4-c]pyridine-3,4(1H,5 H)-dione] | 22.5 ± 10.8 µM | > 900 µM | 26.8 ± 16.2 µM | 
Cc1cc2c(c(=S)n1C)C(=O)O/C2=C\c1cc2cc(F)ccc2[nH]1 [Compound 15c, (Z)-1-((5-Fluoro-1H-indol-2-yl)methylene)-5,6-dimethyl-4-thioxo-4,5-dihydrofuro[3,4-c]pyridin-3(1H)-one] | > 100 µM | > 900 µM | > 100 µM | 
O=C1O/C(=C\c2c[nH]c3ccc(F)cc23)c2cc(-c3ccccc3)[nH]c(=S)c21 [Compound 15d, (Z)-1-((5-Fluoro-1H-indol-3-yl)methylene)-6-phenyl-4-thioxo-4,5-dihydrofuro[3,4-c]pyridin-3(1H)-one] | 63.8 ± 25.2 µM | > 900 µM | 32.5 ± 13.3 µM | 
Cc1cc2c(c(=S)[nH]1)C(=O)O/C2=C\c1c[nH]c2ccccc12 [Compound 15e, (Z)-1-((1H-Indol-3-yl)methylene)-6-methyl-4-thioxo-4,5-dihydrofuro[3,4-c]pyridi n-3(1H)-one] | > 100 µM | > 900 µM | > 100 µM | inhibitory effect on cell lysis induced by perforin [2]: inactive
Cc1cc2c(c(=S)[nH]1)C(=O)O/C2=C\c1csc2ccccc12 [Compound 15f, (Z)-1-(Benzo[b]thiophen-3-ylmethylene)-6-methyl-4-thioxo-4,5-dihydrofuro[3,4-c]pyridin-3(1H)-one] | 26.1 ± 6 µM | > 900 µM | 28.8 ± 6.2 µM | inhibitory effect on cell lysis induced by perforin [2]: active
Cc1cc2c(c(=S)[nH]1)C(=O)O/C2=C\c1sc2ccccc2c1C [Compound 15h, (Z)-6-Methyl-1-((3-methylbenzo[b]thiophen-2-yl)methylene)-4-thioxo-4,5-dihydrofuro[3,4-c]pyridin-3(1H)-one] | > 100 µM | > 900 µM | > 100 µM | 
Cc1c(/C=C2\OC(=O)c3c2cc(C)n(C)c3=S)sc2ccccc12 [Compound 15i, (Z)-5,6-Dimethyl-1-((3-methylbenzo[b]thiophen-2-yl)methylene)-4-thioxo-4,5-dihydrofuro[3,4-c]pyridin-3(1H)-one] | > 100 µM | > 900 µM | > 100 µM | 
Cc1cc2c(c(=S)[nH]1)C(=O)O/C2=C\c1ccsc1 [Compound 15j, (Z)-6-Methyl-1-(thiophen-3-ylmethylene)-4-thioxo-4,5-dihydrofuro[3,4-c]pyridi n-3(1H)-one] | 5 µM | > 900 µM | 6.2 µM | viral protein level (NP, HA) in cells [3]: Reduction of the influenza viral protein level; toxicity to MDCK cells (MDCK cells; at 900 μM, uninfected MDCK cells): no toxicity; S.I. (selectivity index, CC50/EC50), A/Puerto Rico/8/34 [1]: 5.0 ± 1.0 (>180.0); S.I. (selectivity index, CC50/EC50), A/Hong Kong/8/68 (A/Hong Kong/8/68 (H3N2)): 6.2 ± 3.1 (>145.2); S.I. (selectivity index, CC50/EC50), B/Lee/40 (B/Lee/40): 5.9 ± 2.0 (>152.5); inhibitory effect on cell lysis induced by perforin [2]: none
Cc1cc2c(c(=O)[nH]1)C(=O)O/C2=C\c1ccsc1 [Compound 15k, (Z)-6-Methyl-1-(thiophen-3-ylmethylene)furo[3,4-c]pyridine-3,4(1H,5H)-dione] | > 19.8 µM | 19.8 ± 8.2 µM | > 19.8 µM | 
O=C1O/C(=C\c2ccsc2)c2cc(-c3ccccc3)[nH]c(=S)c21 [Compound 15l, (Z)-6-Penyl-1-(thiophen-3-ylmethylene)-4-thioxo-4,5-dihydrofuro[3,4-c]pyridin-3(1H)-one] |  |  |  | CC50 (MDCK cells): > 900 µM; EC50 [1]: > 100 µM; EC50 (A/Hong Kong/8/68 (H3N2)): 27.1 ± 5.8 µM; EC50 (B/Lee/40): > 100 µM
Cc1cc2c(c(=S)[nH]1)C(=O)O/C2=C\c1ccoc1 [Compound 15m, (Z)-1-(Fran-3-ylmethylene)-6-methyl-4-thioxo-4,5-dihydrofuro[3,4-c]pyridin-3(1H)-one] |  |  |  | CC50 (MDCK cells): > 900 µM; EC50 [1]: 21.4 ± 12.6 µM; EC50 (A/Hong Kong/8/68 (H3N2)): 34.1 ± 10 µM; EC50 (B/Lee/40): 16.3 ± 8.5 µM; inhibitory effect on cell lysis induced by perforin [2]: none
Cc1cc2c(c(=O)[nH]1)C(=O)O/C2=C\c1ccoc1 [Compound 15n, (Z)-1-(Furan-3-ylmethylene)-6-methylfuro[3,4-c]pyridine-3,4(1H,5H)-dione] | > 61.9 µM | 61.9 ± 10.7 µM | > 61.9 µM | 
Cc1cc2c(c(=S)[nH]1)C(=O)O/C2=C\c1c[nH]cn1 [Compound 15o, (Z)-1-((1H-imidazol-4-yl)methylene)-6-methyl-4-thioxo-4,5-dihydrofuro[3,4-c]pyridin-3(1H)-one] | > 100 µM | > 900 µM | > 100 µM | anti-influenza activity [4]: no anti-influenza activity
Cc1cc2c(c(=S)[nH]1)C(=O)O/C2=C\c1ncc[nH]1 [Compound 15p, (Z)-1-((1H-Imidazol-2-yl)methylene)-6-methyl-4-thioxo-4,5-dihydrofuro[3,4-c]pyridin-3(1H)-one] | > 100 µM | > 900 µM | > 100 µM | anti-influenza activity [4]: no anti-influenza activity
O=C1O/C(=C\c2cccs2)c2cc(-c3ccccc3)[nH]c(=S)c21 [Compound 15r, (Z)-6-Phenyl-1-(thiophen-2-ylmethylene)-4-thioxo-4,5-dihydrofuro[3,4-c]pyridin-3(1H)-one] | 28.9 ± 12.6 µM | > 900 µM | 15.1 ± 3.8 µM | 
Cc1cc2c(c(=S)[nH]1)C(=O)O/C2=C\c1sccc1C [Compound 15s, (Z)-6-Methyl-1-((3-methylthiophen-2-yl)methylene)-4-thioxo-4,5-dihydrofuro[3,4-c]pyridin-3(1H)-one] | 17.6 µM | > 900 µM | 12.7 µM | S.I. (selectivity index, CC50/EC50), A/Puerto Rico/8/34 [1]: 17.6 ± 11.0 (>51.1); S.I. (selectivity index, CC50/EC50), A/Hong Kong/8/68 (A/Hong Kong/8/68 (H3N2)): 12.7 ± 8.2 (>70.9); S.I. (selectivity index, CC50/EC50), B/Lee/40 (B/Lee/40): 14.0 ± 7.4 (>64.3)
Cc1cc2c(c(=S)[nH]1)C(=O)O/C2=C\c1ccc(C)s1 [Compound 15t, (Z)-6-Methyl-1-((5-methylthiophen-2-yl)methylene)-4-thioxo-4,5-dihydrofuro[3,4-c]pyridin-3(1H)-one] | 8 µM | > 900 µM | 12.2 µM | S.I. (selectivity index, CC50/EC50), A/Puerto Rico/8/34 [1]: 8.0 ± 3.6 (>112.5); S.I. (selectivity index, CC50/EC50), A/Hong Kong/8/68 (A/Hong Kong/8/68 (H3N2)): 12.2 ± 2.9 (>73.8); S.I. (selectivity index, CC50/EC50), B/Lee/40 (B/Lee/40): 9.6 ± 3.5 (>93.8); inhibitory effect on cell lysis induced by perforin [2]: active
CCc1ccc(/C=C2\OC(=O)c3c2cc(C)[nH]c3=S)s1 [Compound 15u, (Z)-1-((5-Ethylthiophen-2-yl)methylene)-6-methyl-4-thioxo-4,5-dihydrofuro[3,4-c]pyridin-3(1H)-one] | 31.7 ± 21.7 µM | > 900 µM | 32.6 ± 10.2 µM | 
Cc1cc2c(c(=S)[nH]1)C(=O)O/C2=C\c1cc(Br)cs1 [Compound 15v, (Z)-1-((4-Bromothiophen-2-yl)methylene)-6-methyl-4-thioxo-4,5-dihydrofuro[3,4-c]pyridin-3(1H)-one] | 63.7 ± 36 µM | > 900 µM | 47.1 ± 18.7 µM | 
Cc1cc2c(c(=S)[nH]1)C(=O)O/C2=C\c1ccc(Br)s1 [Compound 15w, (Z)-1-((5-Bromothiophen-2-yl)methylene)-6-methyl-4-thioxo-4,5-dihydrofuro[3,4-c]pyridin-3(1H)-one] | > 100 µM | > 900 µM | > 100 µM | 
Cc1ccsc1/C=C1\OC(=O)c2c1cc(C)n(C)c2=S [Compound 15x, (Z)-5,6-Dimethyl-1-((3-methylthiophen-2-yl)methylene)-4-thioxo-4,5-dihydrofuro[3,4-c]pyridin-3(1H)-one] | 12.1 µM | > 900 µM | 11.7 µM | S.I. (selectivity index, CC50/EC50), A/Puerto Rico/8/34 [1]: 12.1 ± 9.5 (>74.4); S.I. (selectivity index, CC50/EC50), A/Hong Kong/8/68 (A/Hong Kong/8/68 (H3N2)): 11.7 ± 2.7 (>76.9); S.I. (selectivity index, CC50/EC50), B/Lee/40 (B/Lee/40): 8.0 ± 3.6 (>112.5)
NC(=O)c1ncn([C@@H]2O[C@H](CO)[C@@H](O)[C@H]2O)n1 [Ribavirin, ribavirin, reference compound] | 18.8 ± 4.3 µM |  | 20.2 ± 2.4 µM | 
